Consider one compound from patent US20230141887A1, “CRYSTAL FORM OF DIAZASPIROPYRAN COMPOUND” (MEDSHINE DISCOVERY INC., priority 2020, published 2023).

The assay deals with T1, AXL (Homo sapiens, UniProt P30530).
T1 construct: purchased Promega
T1 sequence (P30530 26-894): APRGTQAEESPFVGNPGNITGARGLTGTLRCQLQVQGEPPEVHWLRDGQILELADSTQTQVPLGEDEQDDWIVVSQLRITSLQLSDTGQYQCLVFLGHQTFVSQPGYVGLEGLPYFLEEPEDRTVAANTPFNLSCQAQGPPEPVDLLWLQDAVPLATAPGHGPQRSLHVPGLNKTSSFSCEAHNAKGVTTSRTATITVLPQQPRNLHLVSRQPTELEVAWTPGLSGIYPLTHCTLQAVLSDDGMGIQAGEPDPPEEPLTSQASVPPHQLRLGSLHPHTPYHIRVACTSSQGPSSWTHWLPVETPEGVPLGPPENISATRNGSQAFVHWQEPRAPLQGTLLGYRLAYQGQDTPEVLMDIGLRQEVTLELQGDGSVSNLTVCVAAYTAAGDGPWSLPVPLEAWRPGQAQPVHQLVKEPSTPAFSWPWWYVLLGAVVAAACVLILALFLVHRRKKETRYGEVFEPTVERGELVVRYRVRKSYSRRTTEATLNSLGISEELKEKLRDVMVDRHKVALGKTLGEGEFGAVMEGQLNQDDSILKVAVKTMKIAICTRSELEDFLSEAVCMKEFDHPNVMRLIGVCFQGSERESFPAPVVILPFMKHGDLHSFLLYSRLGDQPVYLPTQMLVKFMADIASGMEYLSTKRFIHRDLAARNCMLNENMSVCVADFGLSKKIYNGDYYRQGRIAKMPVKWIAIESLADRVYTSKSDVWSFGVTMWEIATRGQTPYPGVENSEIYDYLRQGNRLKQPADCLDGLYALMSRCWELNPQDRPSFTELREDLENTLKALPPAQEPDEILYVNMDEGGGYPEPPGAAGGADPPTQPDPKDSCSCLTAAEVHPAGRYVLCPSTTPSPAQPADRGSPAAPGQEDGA
In words: Assay of AXL inhibitory activity in vitro (Promega AXL Kinase Enzyme System, ADP-Glo). In kind it is biochemical. The settings on record: 50 μmol/L ATP, 30° C., 60 minutes. How it is done: AXL Kinase Enzyme System (kinase system) was purchased from Promega. Envision multi-label Analyzer (PerkinElmer).
The enzyme, substrate, ATP and inhibitors were diluted using the buffer solution in the kit.
The assay was carried out in duplicate. 1 μl of the inhibitors of each concentration gradient, 2 μl of the AXL enzyme (6 ng), and a 2 μl mixture of the substrate and ATP (50 μmol/L ATP, 0.2 μg/μL Axltide) were added to the microplate. […] After the reaction was completed, 5 μL of ADP-Glo reagent was added to each well. The system was further reacted at 30° C. for 40 minutes. After the reaction was completed, 10 μL of kinase detection reagent was added to each well and reacted at 30° C. for 30 minutes. The chemiluminescence was then read by the PerkinElmer Envision multi-label analyzer with an integration time of 0.5 seconds.
The original data was converted into an inhibition rate, and the IC50 value can be obtained by four-parameter curve fitting.
On the technique in general: ADP-Glo turns the ADP formed in a reaction into a luminescent signal.

SMILES strings stand for the structures. Counter-ions that a name gives are not always drawn.

Turning to `CCc1nc(C(N)=O)c(Nc2ccc(N3CCC4(CCN(C)CC4)CC3)c(OC)c2)nc1NC1CCOCC1` [Trifluoroacetate salt of compound A, reference compound], 5.76 nM corresponded to half-maximal inhibition (IC50).
